# “Also recorded” adds a separate entry of the source.
# Legend:
# [1] = tested on: Alzheimer's disease subjects; assay: Montreal Cognitive Assessment (MoCA) in single-blind S-equol pilot study; type: in vivo, human; conditions: for MoCA Visit 3 (Mean ± SEM): wash-out evaluation, 2 weeks placebo after S-equol; for percent MoCA score change between visit 1 and visit 2: FIG. 1
# Procedure: Alzheimer's disease subjects were recruited through the University of Kansas Alzheimer's Disease Center (ADC). The ADC maintains a clinical cohort whose routine characterizations include Clinical Dementia Rating (CDR) scale ratings, uniform data set (UDS) cognitive testing, and APOE genotyping. The diagnosis of clinic cohort participants is primarily based on CDR and UDS data, and is determined through a consensus conference that includes subspecialty-trained cognitive neurologists and an expert neuropsychologist. Subjects diagnosed with Alzheimer's disease further meet current criteria for that diagnosis in McKhann et al., Alzheimers Dement, 7 (2011) 263-269.
# To qualify for the study, participants had to be female with very mild (CDR 0.5) or mild (CDR 1) Alzheimer's disease. Each participant was required to have a study partner. As part of the informed consent process, the subjects and study partners were told that during different parts of the study the participants would receive either an S-equol capsule or an inert placebo. The placebo could not be distinguished from the S-equol by sight, touch, or taste so although the investigators knew whether participants at any given point were receiving S-equol or placebo, the participants themselves were blind to the actual treatment. The S-equol and placebo capsule were provided by Ausio Pharmaceuticals, LLC (Cincinnati, Ohio).
# (§1) Subjects received a two week supply of medication, which uniformly consisted of placebo, and were instructed to take the study medication twice a day. At the end of this initial two-week period participants returned to the ADC clinical trials unit for their first study visit (visit 1; lead-in evaluation). Visit 1 procedures included an assessment of study medication compliance, vital signs, a query for perceived side effects, the Montreal Cognitive Assessment (MoCA), and a 40 ml phlebotomy; the blood was used to measure platelet mitochondria cytochrome oxidase (COX) and citrate synthase (CS) activities. At the completion of this visit the next two weeks of study medication was dispensed, which uniformly consisted of 10 mg S-equol capsule.
# (§2) At the end of this second two-week period participants returned to the ADC clinical trials unit for their second study visit (visit 2; active treatment evaluation). The same procedures were performed during the lead-in evaluation and dispensed the next two weeks of study medication, which at this point uniformly consisted of placebo.
# (§3) At the end of this final two-week period the participants returned to the ADC clinical trials unit for their third study visit (visit 3; wash-out evaluation). The lead-in and active treatment evaluation procedures were performed again, which completed participation in this single-blind study.
# (§4) Secondary outcomes included a safety analysis of the S-equol 10 mg twice per day dose and an analysis of MoCA scores.
# [2] = tested on: platelet mitochondria cytochrome oxidase (COX); assay: Platelet mitochondria COX activity referenced to CS activity (COX/CS) in S-equol pilot study; type: in vivo, human; conditions: for COX/CS Visit 3 (Mean ± SEM): wash-out, 2 weeks placebo after S-equol
# Procedure: as §1, §2, §3
# Forty milliliter blood samples were collected in tubes containing acid-citrate-dextrose (ACD) tubes as an anticoagulant, and maintained at room temperature. Within 24 hours of phlebotomy the blood was processed by the ADC Mitochondrial Genomics and Metabolism Core. To initiate the processing procedure, platelets were isolated by centrifugation and enriched mitochondrial fractions prepared using previously described methods. Such procedures involved nitrogen cavitation to rupture platelets followed by centrifugation to collect mitochondria.
# The protein concentrations of the enriched mitochondrial fractions were measured using a BCA protein assay kit (BioRad, Hercules, Calif.). COX Vmax activity was determined as a pseudo first order-rate constant (sec-1/mg) by measuring the oxidation of reduced cytochrome c at 550 nm.
# In addition to measuring COX activity, each sample's citrate synthase (CS) Vmax activity (nmol/min/mg) was measured. This assay was performed spectrophotometrically by following the formation of 5-thio-2-nitrobenzoate (412 nm) following the addition of 100 μM oxaloacetate at 30° C. In addition to referencing COX activities to total protein, potential inter-sample differences in mitochondrial mass was corrected by referencing the COX activity for each sample to its corresponding CS activity.
# An S-equol-associated modification of platelet mitochondria COX activity was designated as the primary outcome measure. To determine whether an S-equol-associated change in platelet mitochondrial COX activity occurred for an individual participant, an anticipated pattern of response analysis was used. It was expected that platelet mitochondria COX activity would increase in response to the active treatment.
# Participants were identified as responding (i.e., increasing COX activity in response to treatment, classified as “successes” or “responders”) if the individual change (slope) from the lead-in measurement to the active treatment measurement was greater than the change (slope) from the active-treatment measurement to the wash-out (visit 3) measurement.
# [3] = tested on: Alzheimer's disease patients; assay: Safety analysis of S-equol 10 mg twice per day; type: in vivo, human; conditions: S-equol 10 mg twice per day for two weeks
# Procedure: as §1, §4
# cytochrome oxidase (COX) = conditions: brains from ovariectomized mice; cited from earlier work
smiles,measurement,setting,value
Oc1ccc([C@H]2COc3cc(O)ccc3C2)cc1 [S-equol],MoCA Visit 3 (Mean ± SEM),"[1]; APOE4 carriers, 8 participants",15.9 ± 2.7
same,percent MoCA score change between visit 1 and visit 2,[1]; APOE4 carriers,trended in a downward direction
same,MoCA Visit 3 (Mean ± SEM),"[1]; APOE4 non-carriers, 7 participants",12.4 ± 1.6
same,percent MoCA score change between visit 1 and visit 2,[1]; APOE4 non-carriers,in an upward direction
same,MoCA Visit 3 (Mean ± SEM),"[1]; Total, 15 participants",14.3 ± 1.6
same,"differences in mean MoCA scores between visits, or between APOE4 carriers and non-carriers",[1]; visits 1-3,No significant differences were observed
same,COX/CS Visit 3 (Mean ± SEM),"[2]; APOE4 carriers, 8 participants",4.4e-05
same,COX/CS Visit 3 (Mean ± SEM),"[2]; APOE4 non-carriers, outlier excluded, 6 participants",4.1e-05
same,COX/CS Visit 3 (Mean ± SEM),"[2]; APOE4 non-carriers, outlier included, 7 participants",5.1E−05 ± 1.1E−05
same,COX/CS Visit 3 (Mean ± SEM),"[2]; Total, outlier excluded, 14 participants",4.2e-05
same,COX/CS Visit 3 (Mean ± SEM),"[2]; Total, outlier included, 15 participants",4.7e-05
same,percent COX/CS change between visit 1 and visit 2,"[2]; non-APOE4 carriers versus APOE4 carriers, FIG. 3",trended higher in the non-APOE4 carriers than it did in the APOE4 carriers
same,"differences in mean COX/CS values between visits, or between APOE4 carriers and non-carriers",[2]; visits 1-3,No significant differences were observed
same,adverse events,[3],No treatment-related adverse events (either serious or non-serious) were observed; also recorded: No adverse events occurred
same,COX1 protein levels,cytochrome oxidase (COX),increase
same,cytochrome oxidase (COX) activity,cytochrome oxidase (COX),increase
